Source: US20170071944A1, “MODULATORS OF TOLL-LIKE RECEPTORS FOR THE TREATMENT OF HIV” (Gilead Sciences, Inc., priority 2015, published 2017)

Tested on: HIV-specific polyfunctional CD8 T cells
Test: Induced HIV-specific polyfunctional CD8+ T cells in PBMC cultures from HIV-1 infected subjects on cART
Type: cell-based, human
Conditions: for Median HIV-specific polyfunctional CD8 T cells (% proliferating CD8+ cells double positive for IFN-γ and TNF-α): 5 subjects, vehicle 0.73% (Example 15 group), 0.13% (Example 98 group)

CCCC[C@H](CO)Nc1nc(N)nc2cccnc12 [Example 15]
Patients in whom increases were seen (100 nM): 3 of 5 | Median HIV-specific polyfunctional CD8 T cells (% proliferating CD8+ cells double positive for IFN-γ and TNF-α) (100 nM with HIV peptide pool): 0.99% | Patients in whom increases were seen (1000 nM): 4 of 5 | Increase of median HIV-specific polyfunctional CD8 T cells (1000 nM combined with the HIV specific peptide pool, p<0.05): 2.7 fold | Median HIV-specific polyfunctional CD8 T cells (% proliferating CD8+ cells double positive for IFN-γ and TNF-α) (1000 nM with HIV peptide pool): 2.01%
